In US10568879B2 (GALAPAGOS NV, priority 2015, dated 2020):

biological target: T1, GPR84 (Homo sapiens, UniProt Q9NQS5); experiment: GPR84 [35S]GTPγS binding assay; format: biochemical; conditions: 3,3′-diindolylmethane at EC80; membranes from stable cell line over expressing GPR84
T1 construct: expressed in transfected cells
Protocol: The following assay can be used for determination of GPR84 activation. The [^35S]GTPγS binding assay measures the level of G protein activation following agonist occupation of a GPCR, by determining the binding of the non-hydrolysable analog [^35S]GTPγS to Gα subunits.
The assay is performed in a 96-well plate where the following reagents are added. First 50 μL compound is added into the assay plate, followed by addition of 20 μL 3,3′-diindolylmethane at EC80 concentration (concentration which gives 80% of the activity of GPR84). Then, 30 μL of a mixture consisting of membranes-GTPγS-SpA beads is added [mixture consists of 20 μg/well membranes derived from stable cell line over expressing GPR84 (membranes are pre-incubated with 0.1 μM GDP for 15 min at 4° C.), 0.1 nM [^35S]GTPγS (Perkin Elmer, NEG030) and 0.5 mg/well PVT-WGA SpA beads (Perkin Elmer, RPNQ0001)]. All components are diluted in assay buffer containing 20 mM Tris pH 7.5; 5 mM MgCl2; 250 mM NaCl; 0.05% BSA; 75 μg/mL saponin. After an incubation of 90 min at room temperature, 20 μL CsCl2 0.8 M (MP Biomedicals, 02150589) is added, followed by centrifugation at 2000 rpm during 20 min. Plates are read on a topcount reader (perkin elmer) immediately after centrifugation (readout time, 1 min/well).

T1 sequence (Q9NQS5 whole entry): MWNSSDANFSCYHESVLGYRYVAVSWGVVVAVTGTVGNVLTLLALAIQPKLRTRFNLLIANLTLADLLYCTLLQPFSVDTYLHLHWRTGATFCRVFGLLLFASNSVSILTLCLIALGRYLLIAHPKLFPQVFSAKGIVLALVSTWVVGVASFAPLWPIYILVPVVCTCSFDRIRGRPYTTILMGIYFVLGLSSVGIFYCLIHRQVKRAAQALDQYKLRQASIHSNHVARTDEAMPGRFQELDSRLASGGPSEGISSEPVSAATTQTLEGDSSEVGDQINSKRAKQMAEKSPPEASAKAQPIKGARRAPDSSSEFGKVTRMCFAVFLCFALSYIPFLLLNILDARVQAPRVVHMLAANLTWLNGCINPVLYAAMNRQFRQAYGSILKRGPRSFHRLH

IC50	SMILES
0.01 to 100 nM	Cc1c2n(c(OC[C@@H]3COCCO3)cc1=O)CCc1cc(N3CCC[C@H]3C)ccc1-2 [Compound 134, 4-[[(2S)-1,4-dioxan-2-yl]methoxy]-1-methyl-9-[(2R)-2-methylpyrrolidin-1-yl]-6,7-dihydrobenzo[a]quinolizin-2-one]
0.01 to 100 nM	Cc1c2n(c(OC[C@@H]3COCCO3)cc1=O)CCc1cc(N3CCCC(F)C3)ccc1-2 (stereo partly drawn) [Compound 135, 4-[[(2S)-1,4-dioxan-2-yl]methoxy]-9-(3-fluoro-1-piperidyl)-1-methyl-6,7-dihydrobenzo[a]quinolizin-2-one]
0.01 to 100 nM	Cc1c2n(c(OC[C@@H]3COCCO3)cc1=O)CCc1cc(-n3c4ccccc4c4ccccc43)ccc1-2 [Compound 136, 9-carbazol-9-yl-4-[[(2S)-1,4-dioxan-2-yl]methoxy]-1-methyl-6,7-dihydrobenzo[a]quinolizin-2-one]
0.01 to 100 nM	Cc1c2n(c(OC[C@@H]3COCCO3)cc1=O)CCc1cc(N3CC(C)CC(C)C3)ccc1-2 (stereo partly drawn) [Compound 137, 9-(3,5-dimethyl-1-piperidyl)-4-[[(2S)-1,4-dioxan-2-yl]methoxy]-1-methyl-6,7-dihydrobenzo[a]quinolizin-2-one]
0.01 to 100 nM	Cc1c2n(c(OC[C@@H]3COCCO3)cc1=O)CCc1cc(N3CCC(C)(C)C3)ccc1-2 [Compound 138, 9-(3,3-dimethylpyrrolidin-1-yl)-4-[[(2S)-1,4-dioxan-2-yl]methoxy]-1-methyl-6,7-dihydrobenzo[a]quinolizin-2-one]
0.01 to 100 nM	Cc1c2n(c(OC[C@@H]3COCCO3)cc1=O)CCc1cc(N3CCC(C)(C)CC3)ccc1-2 [Compound 139, 9-(4,4-dimethyl-1-piperidyl)-4-[[(2S)-1,4-dioxan-2-yl]methoxy]-1-methyl-6,7-dihydrobenzo[a]quinolizin-2-one]
0.01 to 100 nM	Cc1c2n(c(OC[C@@H]3COCCO3)cc1=O)CCc1cc(N3CCC(C(F)(F)F)CC3)ccc1-2 [Compound 140, 4-[[(2S)-1,4-dioxan-2-yl]methoxy]-1-methyl-9-[4-(trifluoromethyl)-1-piperidyl]-6,7-dihydrobenzo[a]quinolizin-2-one]
0.01 to 100 nM	Cc1c2n(c(OC[C@@H]3COCCO3)cc1=O)CCc1cc(N3CCC(C)CC3)ccc1-2 [Compound 141, 4-[[(2S)-1,4-dioxan-2-yl]methoxy]-1-methyl-9-(4-methyl-1-piperidyl)-6,7-dihydrobenzo[a]quinolizin-2-one]
0.01 to 100 nM	Cc1c2n(c(OC[C@@H]3COCCO3)cc1=O)CCc1cc(NCC(F)(F)F)ccc1-2 [Compound 142, 4-[[(2S)-1,4-dioxan-2-yl]methoxy]-1-methyl-9-(2,2,2-trifluoroethylamino)-6,7-dihydrobenzo[a]quinolizin-2-one]
0.01 to 100 nM	Cc1c2n(c(OC[C@@H]3COCCO3)cc1=O)CCc1cc(N3CCCCC3C)ccc1-2 (stereo partly drawn) [Compound 143, 4-[[(2S)-1,4-dioxan-2-yl]methoxy]-1-methyl-9-(2-methyl-1-piperidyl)-6,7-dihydrobenzo[a]quinolizin-2-one]
100 to 500 nM	Cc1c2n(c(OC[C@@H]3COCCO3)cc1=O)CCc1cc(OC3CCN(C(=O)C4CC4)C3)ccc1-2 (stereo partly drawn) [Compound 144, 9-[1-(cyclopropanecarbonyl)pyrrolidin-3-yl]oxy-4-[[(2S)-1,4-dioxan-2-yl]methoxy]-1-methyl-6,7-dihydrobenzo[a]quinolizin-2-one]
0.01 to 100 nM	CCOC(=O)N1CCC(Oc2ccc3c(c2)CCn2c(OC[C@@H]4COCCO4)cc(=O)c(C)c2-3)C1 (stereo partly drawn) [Compound 145, ethyl 3-[[4-[[(2S)-1,4-dioxan-2-yl]methoxy]-1-methyl-2-oxo-6,7-dihydrobenzo[a]quinolizin-9-yl]oxy]pyrrolidine-1-carboxylate]
500 to 1000 nM	Cc1c2n(c(OC[C@@H]3COCCO3)cc1=O)CCc1cc(C3CN(C(=O)C4CC4)C3)ccc1-2 [Compound 146, 9-[1-(cyclopropanecarbonyl)azetidin-3-yl]-4-[[(2S)-1,4-dioxan-2-yl]methoxy]-1-methyl-6,7-dihydrobenzo[a]quinolizin-2-one]
0.01 to 100 nM	CCOC(=O)N1CC(c2ccc3c(c2)CCn2c(OC[C@@H]4COCCO4)cc(=O)c(C)c2-3)C1 [Compound 147, ethyl 3-[4-[[(2S)-1,4-dioxan-2-yl]methoxy]-1-methyl-2-oxo-6,7-dihydrobenzo[a]quinolizin-9-yl]azetidine-1-carboxylate]
500 to 1000 nM	Cc1c2n(c(OC[C@@H]3COCCO3)cc1=O)CCc1cc(C3CN(C(=O)N(C)C)C3)ccc1-2 [Compound 148, 3-[4-[[(2S)-1,4-dioxan-2-yl]methoxy]-1-methyl-2-oxo-6,7-dihydrobenzo[a]quinolizin-9-yl]-N,N-dimethyl-azetidine-1-carboxamide]
500 to 1000 nM	Cc1c2n(c(OC[C@@H]3COCCO3)cc1=O)CCc1cc(C3CN(C(=O)NC(C)C)C3)ccc1-2 [Compound 149, 3-[4-[[(2S)-1,4-dioxan-2-yl]methoxy]-1-methyl-2-oxo-6,7-dihydrobenzo[a]quinolizin-9-yl]-N-isopropyl-azetidine-1-carboxamide]
500 to 1000 nM	Cc1c2n(c(OC[C@@H]3COCCO3)cc1=O)CCc1cc(OC3CN(C(=O)N(C)C)C3)ccc1-2 [Compound 150, 3-[[4-[[(2S)-1,4-dioxan-2-yl]methoxy]-1-methyl-2-oxo-6,7-dihydrobenzo[a]quinolizin-9-yl]oxy]-N,N-dimethyl-azetidine-1-carboxamide]
500 to 1000 nM	Cc1c2n(c(OC[C@@H]3COCCO3)cc1=O)CCc1cc(OC3CN(C(=O)NC(C)C)C3)ccc1-2 [Compound 151]
100 to 500 nM	Cc1c2n(c(OCC3CC(C)(C)O3)cc1=O)CCc1cc(OCc3ccccc3)ccc1-2 (stereo not shown) [Compound 152, 9-benzyloxy-4-[(4,4-dimethyloxetan-2-yl)methoxy]-1-methyl-6,7-dihydrobenzo[a]quinolizin-2-one]
100 to 500 nM	Cc1c2n(c(OCC3(C)CCCO3)cc1=O)CCc1cc(OCc3ccccc3)ccc1-2 (stereo not shown) [Compound 153, 9-benzyloxy-1-methyl-4-[(2-methyltetrahydrofuran-2-yl)methoxy]-6,7-dihydrobenzo[a]quinolizin-2-one]
0.01 to 100 nM	Cc1c2n(c(OCC3CCC(C)(C)O3)cc1=O)CCc1cc(OCc3ccccc3)ccc1-2 (stereo not shown) [Compound 154, 9-benzyloxy-4-[(5,5-dimethyltetrahydrofuran-2-yl)methoxy]-1-methyl-6,7-dihydrobenzo[a]quinolizin-2-one]
0.01 to 100 nM	Cc1c2n(c(OC[C@@H]3COCCO3)cc1=O)CCc1cc(OCC(F)(F)C(F)(F)F)ccc1-2 [Compound 155, 4-[[(2S)-1,4-dioxan-2-yl]methoxy]-1-methyl-9-(2,2,3,3,3-pentafluoropropoxy)-6,7-dihydrobenzo[a]quinolizin-2-one]
100 to 500 nM	Cc1c2n(c(OC[C@@H]3COCCO3)cc1=O)CCc1ccccc1-2 [Compound 156, 4-[[(2S)-1,4-dioxan-2-yl]methoxy]-1-methyl-6,7-dihydrobenzo[a]quinolizin-2-one]
500 to 1000 nM	Cc1c2n(c(OC[C@@H]3COCCO3)cc1=O)CCc1cc(N3CCCC3=O)ccc1-2 [Compound 157, 4-[[(2S)-1,4-dioxan-2-yl]methoxy]-1-methyl-9-(2-oxopyrrolidin-1-yl)-6,7-dihydrobenzo[a]quinolizin-2-one]
0.01 to 100 nM	Cc1c2n(c(OC[C@@H]3COCCO3)cc1=O)CCc1cc(OCCF)ccc1-2 [Compound 159, 4-[[(2S)-1,4-dioxan-2-yl]methoxy]-9-(2-fluoroethoxy)-1-methyl-6,7-dihydrobenzo[a]quinolizin-2-one]
